Reference: PMC4394992 (Journal of controlled release : official journal of the …, 2015)

Experiments:
[1] = test system: 4T1 murine breast cancer cells; experiment: Cell proliferation MTS assay; format: cell-based; details: Mus musculus, 96 h
Miapaca-2 cells = experiment: Cell clonogenic assay, drug alone; format: cell-based, human; details: Miapaca-2, 3 µM
4T1 cells = experiment: Cell clonogenic assay, drug alone; format: cell-based, murine; details: 4T1, 3 µM

## CC1=C2C[C@H]3[C@@H](CC=C4C[C@@H](O)CC[C@@]43C)[C@@H]2CC[C@]12O[C@@H]1C[C@H](C)CN[C@H]1[C@H]2C [free CPA, cyclopamine]
[1]
  IC50: 11.3 ± 1.2 µM
Miapaca-2 cells
  Reduction of colony numbers: 17.7% ± 4.3
4T1 cells
  Reduction of colony numbers: 6.7% ± 6.1
